Source: patent US8633206B2, “Pyrrolo[2,3-D]pyrimidine compounds” (Pfizer Inc., priority 2009, dated 2014)

Assays:
Format in all cases: biochemical
JAK2 = JAK2 (Homo sapiens (Human), UniProt O60674); assay: JAK enzymatic assay (peptide mobility shift), JAK2; conditions: recombinant JAK2 2 nM, JAKtide peptide, 150 minutes
JAK1 = JAK1 (Homo sapiens (Human), UniProt P23458); assay: JAK enzymatic assay (peptide mobility shift), JAK1; conditions: recombinant JAK1 20 nM, IRS-1 peptide, 240 minutes
JAK3 = JAK3 (Homo sapiens (Human), UniProt P52333); assay: JAK enzymatic assay (peptide mobility shift), JAK3; conditions: recombinant JAK3 1 nM, JAKtide peptide, 90 minutes
Chain of JAK3 (P52333 781-1124): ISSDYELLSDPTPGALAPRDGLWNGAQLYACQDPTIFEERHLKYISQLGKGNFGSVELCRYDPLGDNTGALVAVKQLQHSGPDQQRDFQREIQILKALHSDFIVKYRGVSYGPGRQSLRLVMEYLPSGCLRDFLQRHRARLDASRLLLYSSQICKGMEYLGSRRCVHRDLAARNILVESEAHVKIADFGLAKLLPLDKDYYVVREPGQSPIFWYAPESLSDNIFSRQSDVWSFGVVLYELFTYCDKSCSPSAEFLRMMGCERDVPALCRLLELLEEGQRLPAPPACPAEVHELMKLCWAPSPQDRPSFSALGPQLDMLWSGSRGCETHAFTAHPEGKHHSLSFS

Chain of JAK2 (O60674 808-1132): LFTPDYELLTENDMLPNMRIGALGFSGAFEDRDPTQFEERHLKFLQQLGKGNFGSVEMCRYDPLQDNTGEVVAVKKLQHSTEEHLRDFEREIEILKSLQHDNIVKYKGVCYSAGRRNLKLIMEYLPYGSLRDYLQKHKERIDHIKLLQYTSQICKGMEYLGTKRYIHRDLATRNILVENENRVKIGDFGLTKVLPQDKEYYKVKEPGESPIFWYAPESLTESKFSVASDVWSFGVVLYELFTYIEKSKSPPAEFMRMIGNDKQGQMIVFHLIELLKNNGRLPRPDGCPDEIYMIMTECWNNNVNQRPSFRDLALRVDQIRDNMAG
Chain of JAK1 (P23458 whole entry): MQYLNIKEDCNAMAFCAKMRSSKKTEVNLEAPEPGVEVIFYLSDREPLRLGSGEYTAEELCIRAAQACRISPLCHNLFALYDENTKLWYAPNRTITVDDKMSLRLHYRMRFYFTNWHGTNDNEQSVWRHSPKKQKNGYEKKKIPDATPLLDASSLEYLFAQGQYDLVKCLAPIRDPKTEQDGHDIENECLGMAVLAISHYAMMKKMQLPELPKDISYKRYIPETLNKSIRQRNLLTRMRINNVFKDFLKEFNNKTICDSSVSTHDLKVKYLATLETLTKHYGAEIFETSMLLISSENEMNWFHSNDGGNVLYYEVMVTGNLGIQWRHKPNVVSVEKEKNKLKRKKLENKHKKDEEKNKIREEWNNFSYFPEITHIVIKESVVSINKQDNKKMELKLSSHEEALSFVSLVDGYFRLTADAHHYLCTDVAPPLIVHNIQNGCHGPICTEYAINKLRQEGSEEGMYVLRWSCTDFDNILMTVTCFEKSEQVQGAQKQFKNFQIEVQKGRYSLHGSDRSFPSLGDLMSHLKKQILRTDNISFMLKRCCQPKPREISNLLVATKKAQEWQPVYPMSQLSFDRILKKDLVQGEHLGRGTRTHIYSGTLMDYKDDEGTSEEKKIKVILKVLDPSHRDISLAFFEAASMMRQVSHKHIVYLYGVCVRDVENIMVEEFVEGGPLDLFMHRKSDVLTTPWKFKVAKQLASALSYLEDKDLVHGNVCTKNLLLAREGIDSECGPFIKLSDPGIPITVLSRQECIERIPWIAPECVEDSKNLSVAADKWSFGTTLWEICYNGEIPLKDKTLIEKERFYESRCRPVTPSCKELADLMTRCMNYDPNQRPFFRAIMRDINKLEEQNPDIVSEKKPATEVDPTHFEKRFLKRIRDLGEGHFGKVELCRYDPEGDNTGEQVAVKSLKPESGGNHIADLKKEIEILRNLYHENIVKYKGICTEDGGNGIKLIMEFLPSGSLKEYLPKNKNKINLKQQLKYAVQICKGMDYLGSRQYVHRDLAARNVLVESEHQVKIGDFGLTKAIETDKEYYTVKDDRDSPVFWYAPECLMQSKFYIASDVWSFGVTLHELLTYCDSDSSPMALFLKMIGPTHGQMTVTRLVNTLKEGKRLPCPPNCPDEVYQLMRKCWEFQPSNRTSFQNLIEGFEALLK

| IC50 (JAK2) [nM] | IC50 (JAK1) [nM] | IC50 (JAK3) [nM] | Compound |
| --- | --- | --- | --- |
| 71.7 | 44.6 | 846 | CCC1(NC(=O)OCc2ccccc2)CCCN(S(=O)(=O)C[C@H]2CC[C@H](N(C)c3ncnc4[nH]ccc34)CC2)C1 (stereo partly drawn) [Example 4, benzyl {3-ethyl-1-[({trans-4-[methyl(7H-pyrrolo[2,3-d]pyrimidin-4-yl)amino]cyclohexyl}methyl)-sulfonyl]piperidin-3-yl}carbamate] |
| 72.2 | 10.8 | 851 | C[C@H]1CCCN(S(=O)(=O)C[C@H]2CC[C@H](N(C)c3ncnc4[nH]ccc34)CC2)C1 [Example 61, N-methyl-N-(trans-4-{[(3-methylpiperidin-1-yl)sulfonyl]methyl}cyclo-hexyl)-7H-pyrrolo[2,3-d]-pyrimidin-4-amine] |
| 0.106 | 0.0263 | 0.768 | CN(c1ncnc2[nH]ccc12)[C@H]1CC[C@H](CS(=O)(=O)N2CCC[C@@H](OP(=O)(O)O)C2)CC1 [Example 141, (3R)-1-[({trans-4-[methyl(7H-pyrrolo[2,3-d]pyrimidin-4-yl)amino]cyclohexyl}methyl)sulfonyl]piperidin-3-yl dihydrogen phosphate] |
| 50.8 | 16.7 | 255 | Cc1ccc(N2CCN(S(=O)(=O)C[C@H]3CC[C@H](N(C)c4ncnc5[nH]ccc45)CC3)CC2)nc1 [Example 118, N-methyl-N-[trans-4-({[4-(5-methylpyridin-2-yl)piperazin-1-yl]sulfonyl}-methyl)cyclohexyl]-7H-pyrrolo[2,3-d]pyrimidin-4-amine] |
| 66.9 | 16.5 | 431 | CN(c1ncnc2[nH]ccc12)[C@H]1CC[C@H](CS(=O)(=O)N2CCC(C#N)CC2)CC1 [Example 42, 1-[({trans-4-[methyl(7H-pyrrolo[2,3-d]pyrimidin-4-yl)amino]cyclohexyl}-methyl)sulfonyl]piperidine-4-carbonitrile] |
| 7.71 | 2.13 | 74.3 | CN(c1ncnc2[nH]ccc12)[C@H]1CC[C@H](CS(=O)(=O)N2CCCC(C(=O)O)C2)CC1 (stereo partly drawn) [Example 16, 1-[({trans-4-[methyl(7H-pyrrolo[2,3-d]pyrimidin-4-yl)amino]cyclohexyl}methyl)-sulfonyl]piperidine-3-carboxylic acid] |
| 10.8 | 1.92 | 76.6 | CN(c1ncnc2[nH]ccc12)[C@H]1CC[C@H](CS(=O)(=O)N2CC[C@@](O)(c3ccccc3)C2)CC1 [Example 91, 1-[({trans-4-[methyl(7H-pyrrolo[2,3-d]pyrimidin-4-yl)amino]cyclohexyl}-methyl)sulfonyl]-3-phenylpyrrolidin-3-ol] |
| 16.2 | 5.41 | 169 | CN(c1ncnc2[nH]ccc12)[C@H]1CC[C@H](CS(=O)(=O)N2CCC[C@H](O)C2)CC1 [Example 14, (3S)-1-[({trans-4-[methyl-(7H-pyrrolo[2,3-d]-pyrimidin-4-yl)amino]-cyclohexyl}methyl)sulfonyl]-piperidin-3-ol] |
| 35.8 | 10.6 | 294 | CN(c1ncnc2[nH]ccc12)[C@H]1CC[C@H](CS(=O)(=O)N2CC[C@](O)(c3ccccn3)C2)CC1 [Example 103, 1-[({trans-4-[methyl(7H-pyrrolo[2,3-d]pyrimidin-4-yl)-amino]cyclohexyl}-methyl)sulfonyl]-3-pyridin-2-ylpyrrolidin-3-ol] |
| 29.6 | 4.37 | 386 | CN(c1ncnc2[nH]ccc12)[C@H]1CC[C@H](CS(=O)(=O)N2CC[C@H](OCC(=O)N3CCCC3)C2)CC1 [Example 98, N-methyl-N-[trans-4-({[3-(2-oxo-2-pyrrolidin-1-ylethoxy)pyrrolidin-1-yl]sulfonyl}methyl)cyclo-hexyl]-7H-pyrrolo[2,3-d]pyrimidin-4-amine] |
| 6.89 | 1.7 | 19.4 | C[C@@H]1C[C@@H](CS(=O)(=O)N2CCC[C@@H](O)C2)CC[C@@H]1N(C)c1ncnc2[nH]ccc12 [Example 129, (3R)-1-[({(1S,3R,4S)-3-methyl-4-[methyl(7H-pyrrolo[2,3-d]pyrimidin-4-yl)amino]cyclohexyl}-methyl)sulfonyl]piperidin-3-ol] |
| 71 | 12.8 | 434 | COCC1CCN(S(=O)(=O)C[C@H]2CC[C@H](N(C)c3ncnc4[nH]ccc34)CC2)CC1 [Example 43, N-[trans-4-({[4-(methoxy-methyl)piperidin-1-yl]-sulfonyl}methyl)-cyclohexyl]-N-methyl-7H-pyrrolo[2,3-d]pyrimidin-4-amine] |
| 22.5 | 1.69 | 138 | COC[C@@H]1CCN(S(=O)(=O)C[C@H]2CC[C@H](N(C)c3ncnc4[nH]ccc34)CC2)C1 [Example 73, N-[trans-4-({[3-(methoxy-methyl)pyrrolidin-1-yl]-sulfonyl}methyl)-cyclohexyl]-N-methyl-7H-pyrrolo[2,3-d]pyrimidin-4-amine] |
| 81 | 6.91 | 488 | CN(C(=O)OC(C)(C)C)[C@H]1CCN(S(=O)(=O)C[C@H]2CC[C@H](N(C)c3ncnc4[nH]ccc34)CC2)C1 [Example 92, tert-butyl methyl{(3S)-1-[({trans-4-[methyl(7H-pyrrolo[2,3-d]pyrimidin-4-yl)amino]cyclohexyl}methyl)-sulfonyl]pyrrolidin-3-yl}carbamate] |
| 36.4 | 20.8 | 319 | CN(c1ncnc2[nH]ccc12)[C@H]1CC[C@H](CS(=O)(=O)N2CC[C@H](F)C2)CC1 [Example 70, N-[trans-4-({[(3S)-3-fluoropyrrolidin-1-yl]sulfonyl}methyl)cyclo-hexyl]-N-methyl-7H-pyrrolo[2,3-d]pyrimidin-4-amine] |
| 126 | 11.4 | 1920 | CC1CN(S(=O)(=O)C[C@H]2CC[C@H](N(C)c3ncnc4[nH]ccc34)CC2)CCN1C (stereo partly drawn) [Example 38, N-(trans-4-{[(3,4-dimethylpiperazin-1-yl)-sulfonyl]methyl}cyclo-hexyl)-N-methyl-7H-pyrrolo-[2,3-d]pyrimidin-4-amine] |
| 16.7 | 4.79 | 133 | CN(c1ncnc2[nH]ccc12)[C@H]1CC[C@H](CS(=O)(=O)N2CC[C@H](S(=O)(=O)CCc3ccccc3)C2)CC1 [Example 83, N-methyl-N-{trans-4-[({3-[(2-phenylethyl)-sulfonyl]pyrrolidin-1-yl}sulfonyl)methyl]cyclo-hexyl}-7H-pyrrolo[2,3-d]pyrimidin-4-amine] |
| 21.9 | 7.07 | 339 | CC(=O)C1CCCN(S(=O)(=O)C[C@H]2CC[C@H](N(C)c3ncnc4[nH]ccc34)CC2)C1 (stereo partly drawn) [Example 5, 1-{1-[({trans-4-[methyl(7H-pyrrolo[2,3-d]pyrimidin-4-yl)amino]-cyclohexyl}methyl)sulfonyl]-piperidin-3-yl}ethanone] |
| 32.1 | 19.3 | 462 | CN(c1ncnc2[nH]ccc12)[C@H]1CC[C@H](CS(=O)(=O)N2CC[C@H](COCc3cccnc3)C2)CC1 [Example 96, N-methyl-N-{trans-4-[({3-[(pyridin-3-ylmethoxy)-methyl]pyrrolidin-1-yl}-sulfonyl)methyl]-cyclohexyl}-7H-pyrrolo[2,3-d]pyrimidin-4-amine] |
| 39.6 | 5.92 | 173 | CN(c1ncnc2[nH]ccc12)[C@H]1CC[C@H](CS(=O)(=O)N2C[C@@H](O)[C@H](O)C2)CC1 [Example 72, (3R,4R)-1-[({trans-4-[methyl(7H-pyrrolo[2,3-d]-pyrimidin-4-yl)amino]-cyclohexyl}methyl)sulfonyl] pyrrolidine-3,4-diol] |
| 8.04 | 1.44 | 105 | CN(c1ncnc2[nH]ccc12)[C@H]1CC[C@H](CS(=O)(=O)N2CCC[C@@H](O)C2)CC1 [Example 40, (3R)-1-[({trans-4-[methyl(7H-pyrrolo[2,3-d]pyrimidin-4-yl)amino]-cyclohexyl}methyl)sulfonyl]piperidin-3-ol] |
| 33 | 11.3 | 592 | CN(c1ncnc2[nH]ccc12)[C@H]1CC[C@H](CS(=O)(=O)N2CCCC(Cc3ccccn3)C2)CC1 (stereo partly drawn) [Example 21, N-methyl-N-[trans-4-({[3-(pyridin-2-ylmethyl)-piperidin-1-yl]sulfonyl}-methyl)cyclohexyl]-7H-pyrrolo[2,3-d]pyrimidin-4-amine] |
| 49.8 | 13.7 | 323 | CN(c1ncnc2[nH]ccc12)[C@H]1CC[C@H](CS(=O)(=O)N2CCN(Cc3ccccn3)CC2)CC1 [Example 123, N-methyl-N-[trans-4-({[4-(pyridin-2-ylmethyl)-piperazin-1-yl]sulfonyl}-methyl)cyclohexyl]-7H-pyrrolo[2,3-d]pyrimidin-4-amine] |
| 22 | 3.1 | 128 | CN(c1ncnc2[nH]ccc12)[C@H]1CC[C@H](CS(=O)(=O)N2CCC[C@H](CS(N)(=O)=O)C2)CC1 [Example 66, 1-{1-[({trans-4-[methyl(7H-pyrrolo[2,3-d]pyrimidin-4-yl)amino]cyclohexyl}-methyl)sulfonyl]piperidin-3-yl}-methanesulfonamide] |
| 85.1 | 16.4 | 781 | CC1CCN(S(=O)(=O)C[C@H]2CC[C@H](N(C)c3ncnc4[nH]ccc34)CC2)CC1 [Example 51, N-methyl-N-(trans-4-{[(4-methylpiperidin-1-yl)sulfonyl]-methyl}cyclohexyl)-7H-pyrrolo[2,3-d]pyrimidin-4-amine] |

| Compound | IC50 (JAK2) [nM] | IC50 (JAK1) [nM] | IC50 (JAK3) [nM] |
| --- | --- | --- | --- |
| CC(C)COC1CCCN(S(=O)(=O)C[C@H]2CC[C@H](N(C)c3ncnc4[nH]ccc34)CC2)C1 (stereo partly drawn) [Example 138, N-(trans-4-{[(3-isobutoxypiperidin-1-yl)sulfonyl]methyl}cyclohexyl)-N-methyl-7H-pyrrolo[2,3-d]pyrimidin-4-amine] | 0.00767 | 0.00133 | 0.132 |
